pIC50: −log10 of the molar value. Where two headings read alike, the source gives them in different places.
Molecular target: Recombinant human cathepsin S (CatS) (Homo sapiens, UniProt P25774)
Assay: Recombinant human cathepsin S (CatS) inhibition assay, fluorogenic substrate Z-Valine-Valine-Arginine-AMC;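 also: Baculovirus-expressed CatS in pH 5.0 sodium acetate buffer with DTT and NaCl, fluorescence read each minute over 20 min, inhibition derived from rate slope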

Sequence of Recombinant human cathepsin S (CatS) (P25774 115-331): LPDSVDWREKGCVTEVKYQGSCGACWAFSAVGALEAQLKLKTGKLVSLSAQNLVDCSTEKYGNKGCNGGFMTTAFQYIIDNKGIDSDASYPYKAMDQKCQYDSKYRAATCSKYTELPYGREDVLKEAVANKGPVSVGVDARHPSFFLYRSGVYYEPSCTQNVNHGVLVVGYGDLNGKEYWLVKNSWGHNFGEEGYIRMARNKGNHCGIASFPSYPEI

SMILES	pIC50	pIC50 (CatS IC50)
CCN(CC)CC#Cc1cc(-c2nn(CCCN3CCOCC3)c3c2CN(S(C)(=O)=O)CC3)ccc1Cl [Example 49, (3-{2-Chloro-5-[5-methanesulfonyl-1-(3-morpholin-4-yl-propyl)-4,5,6,7-tetrahydro-1H-pyrazolo[4,3-c]pyridin-3-yl]-phenyl}-prop-2-ynyl)-diethyl-amine]	4.71	–
CS(=O)(=O)N1CCc2c(c(-c3ccc(Cl)c(C#CCN4CCS(=O)(=O)CC4)c3)nn2CCCN2CCOCC2)C1 [Example 50, 3-{4-Chloro-3-[3-(1,1-dioxo-1 A^6-thiomorpholin-4-yl)-prop-1-ynyl]-phenyl}-5-methanesulfonyl-1-(3-morpholin-4-yl-propyl)-4,5,6,7-tetrahydro-1H-pyrazolo[4,3-c]pyridine]	5.17	–
CC(C)CC#Cc1cc(-c2nn(CCCN3CCOCC3)c3c2CN(S(C)(=O)=O)CC3)ccc1Cl [Example 51, 3-[4-Chloro-3-(4-methyl-pent-1-ynyl)-phenyl]-5-methanesulfonyl-1-(3-morpholin-4-yl-propyl)-4,5,6,7-tetrahydro-1H-pyrazolo[4,3-c]pyridine]	–	5.08
CS(=O)(=O)N1CCc2c(c(-c3ccc(Cl)c(C#CCOc4ccccc4)c3)nn2CCCN2CCOCC2)C1 [Example 52, 3-[4-Chloro-3-(3-phenoxy-prop-1-ynyl)-phenyl]-5-methanesulfonyl-1-(3-morpholin-4-yl-propyl)-4,5,6,7-tetrahydro-1H-pyrazolo[4,3-c]pyridine]	4.87	–
CS(=O)(=O)N1CCc2c(c(-c3ccc(Cl)c(C#CCNC(=O)c4ccccc4)c3)nn2CCCN2CCOCC2)C1 [Example 53, N-(3-{2-Chloro-5-[5-methanesulfonyl-1-(3-morpholin-4-yl-propyl)-4,5,6,7-tetrahydro-1H-pyrazolo[4,3-c]pyridin-3-yl]-phenyl}-prop-2-ynyl)-benzamide]	4.81	–
CS(=O)(=O)N1CCc2c(c(-c3ccc(Cl)c(C#CCNS(=O)(=O)c4ccccc4)c3)nn2CCCN2CCOCC2)C1 [Example 54, N-(3-{2-Chloro-5-[5-methanesulfonyl-1-(3-morpholin-4-yl-propyl)-4,5,6,7-tetrahydro-1H-pyrazolo[4,3-c]pyridin-3-yl]-phenyl]-prop-2-ynyl)-benzenesulfonamide]	5.15	–
CS(=O)(=O)N1CCc2c(c(-c3ccc(Cl)c(CCc4ccc(Oc5ccccc5)cc4)c3)nn2CCCN2CCOCC2)C1 [Example 55, 3-{4-Chloro-3-[2-(4-phenoxy-phenyl)-ethyl]-phenyl}-5-methanesulfonyl-1-(3-morpholin-4-yl-propyl)-4,5,6,7-tetrahydro-1H-pyrazolo[4,3-c]pyridine]	5.97	–
CS(=O)(=O)N1CCc2c(c(-c3ccc(Cl)c(CCc4cccc(O)c4)c3)nn2CCCN2CCOCC2)C1 [Example 56, 3-(2-{2-Chloro-5-[5-methanesulfonyl-1-(3-morpholin-4-yl-propyl)-4,5,6,7-tetrahydro-1H-pyrazolo[4,3-c]pyridin-3-yl]-phenyl}-ethyl)-phenol]	6.04	–
CS(=O)(=O)N1CCc2c(c(-c3ccc(Cl)c(CCc4ccc(Cl)cc4)c3)nn2CCCN2CCOCC2)C1 [Example 57, 3-{4-Chloro-3-[2-(4-chloro-phenyl)-ethyl]-phenyl}-5-methanesulfonyl-1-(3-morpholin-4-yl-propyl)-4,5,6,7-tetrahydro-1H-pyrazolo[4,3-c]pyridine]	6.64	–
COc1ccc(CCc2cc(-c3nn(CCCN4CCOCC4)c4c3CN(S(C)(=O)=O)CC4)ccc2Cl)cc1 [Example 58, 3-{4-Chloro-3-[2-(4-methoxy-phenyl)-ethyl]-phenyl}-5-methanesulfonyl-1-(3-morpholin-4-yl-propyl)-4,5,6,7-tetrahydro-1H-pyrazolo[4,3-c]pyridine]	6.28	–
CS(=O)(=O)N1CCc2c(c(-c3ccc(Cl)c(CCc4ccc(F)cc4F)c3)nn2CCCN2CCOCC2)C1 [Example 59, 3-{4-Chloro-3-[2-(2,4-difluoro-phenyl)-ethyl]-phenyl}-5-methanesulfonyl-1-(3-morpholin-4-yl-propyl)-4,5,6,7-tetrahydro-1H-pyrazolo[4,3-c]pyridine]	6.18	–
Cc1ccccc1CCc1cc(-c2nn(CCCN3CCOCC3)c3c2CN(S(C)(=O)=O)CC3)ccc1Cl [Example 60, 3-[4-Chloro-3-(2-o-tolyl-ethyl)-phenyl]-5-methanesulfonyl-1-(3-morpholin-4-yl-propyl)-4,5,6,7-tetrahydro-1H-pyrazolo[4,3-c]pyridine]	6.06	–
CS(=O)(=O)N1CCc2c(c(-c3ccc(Cl)c(CCc4ccc(CO)cc4)c3)nn2CCCN2CCOCC2)C1 [Example 61, [4-(2-{2-Chloro-5-[5-methanesulfonyl-1-(3-morpholin-4-yl-propyl)-4,5,6,7-tetrahydro-1H-pyrazolo[4,3-c]pyridin-3-yl]-phenyl}-ethyl)-phenyl]-methanol]	6.70	–
CS(=O)(=O)N1CCc2c(c(-c3ccc(Cl)c(CCc4ccccc4)c3)nn2CCCN2CCOCC2)C1 [Example 62, 3-(4-Chloro-3-phenethyl-phenyl)-5-methanesulfonyl-1-(3-morpholin-4-yl-propyl)-4,5,6,7-tetrahydro-1H-pyrazolo[4,3-c]pyridine]	5.91	–
CS(=O)(=O)N1CCc2c(c(-c3ccc(Cl)c(CCCNC(=O)c4ccccc4)c3)nn2CCCN2CCOCC2)C1 [Example 64, N-(3-{2-Chloro-5-[5-methanesulfonyl-1-(3-morpholin-4-yl-propyl)-4,5,6,7-tetrahydro-1H-pyrazolo[4,3-c]pyridin-3-yl]-phenyl}-propyl)-benzamide]	5.27	–

Now from value to compound, other results behind:

pIC50	SMILES	pIC50 (CatS IC50)
5.85	CS(=O)(=O)N1CCc2c(c(-c3ccc(Cl)c(CCCc4ccccc4)c3)nn2CCCN2CCOCC2)C1 [Example 63, 3-[4-Chloro-3-(3-phenyl-propyl)-phenyl]-5-methanesulfonyl-1-(3-morpholin-4-yl-propyl)-4,5,6,7-tetrahydro-1H-pyrazolo[4,3-c]pyridine]	–
5.97	CS(=O)(=O)N1CCc2c(c(-c3ccc(Cl)c(CCCNS(=O)(=O)c4ccccc4)c3)nn2CCCN2CCOCC2)C1 [Example 65, N-(3-{2-Chloro-5-[5-methanesulfonyl-1-(3-morpholin-4-yl-propyl)-4,5,6,7-tetrahydro-1H-pyrazolo[4,3-c]pyridin-3-yl]-phenyl}-propyl)-benzenesulfonamide]	–
6.60	CC(=O)Nc1ccc(C#Cc2cc(-c3nn(CCCN4CCOCC4)c4c3CN(S(C)(=O)=O)CC4)ccc2Cl)cc1 [Example 66, N-(4-{2-Chloro-5-[5-methanesulfonyl-1-(3-morpholin-4-yl-propyl)-4,5,6,7-tetrahydro-1H-pyrazolo[4,3-c]pyridin-3-yl]-phenylethynyl}-phenyl)-acetamide]	–
5.52	CS(=O)(=O)N1CCc2c(c(-c3ccc(Cl)c(/C=C\c4ccccc4)c3)nn2CCCN2CCOCC2)C1 [Example 67, 3-(4-Chloro-3-Z-styryl-phenyl)-5-methanesulfonyl-1-(3-morpholin-4-yl-propyl)-4,5,6,7-tetrahydro-1H-pyrazolo[4,3-c]pyridine]	–
5.55	CS(=O)(=O)N1CCc2c(c(-c3ccc(Cl)c(/C=C/c4ccccc4)c3)nn2CCCN2CCOCC2)C1 [Example 68, 3-(4-Chloro-3-E-styryl-phenyl)-5-methanesulfonyl-1-(3-morpholin-4-yl-propyl)-4,5,6,7-tetrahydro-1H-pyrazolo[4,3-c]pyridine]	–
6.28	CS(=O)(=O)N1CCc2c(c(-c3ccc(Cl)c(C#Cc4ccc(CN)cc4)c3)nn2CCCN2CCOCC2)C1 [Example 69, 4-{2-Chloro-5-[5-methanesulfonyl-1-(3-morpholin-4-yl-propyl)-4,5,6,7-tetrahydro-1H-pyrazolo[4,3-c]pyridin-3-yl]-phenylethynyl}-benzylamine]	–
6.57	CS(=O)(=O)NCc1ccc(C#Cc2cc(-c3nn(CCCN4CCOCC4)c4c3CN(S(C)(=O)=O)CC4)ccc2Cl)cc1 [Example 70, N-(4-{2-Chloro-5-[5-methanesulfonyl-1-(3-morpholin-4-yl-propyl)-4,5,6,7-tetrahydro-1H-pyrazolo[4,3-c]pyridin-3-yl]-phenylethynyl}-benzyl)-methanesulfonamide]	–
6.77	CS(=O)(=O)N1CCc2c(c(-c3ccc(Cl)c(C#Cc4ccc(CNS(=O)(=O)c5ccccc5)cc4)c3)nn2CCCN2CCOCC2)C1 [Example 71, N-(4-{2-Chloro-5-[5-methanesulfonyl-1-(3-morpholin-4-yl-propyl)-4,5,6,7-tetrahydro-1H-pyrazolo[4,3-c]pyridin-3-yl]-phenylethynyl}-benzyl)-benzenesulfonamide]	–
6.31	CC(=O)NCc1ccc(C#Cc2cc(-c3nn(CCCN4CCOCC4)c4c3CN(S(C)(=O)=O)CC4)ccc2Cl)cc1 [Example 72, N-(4-{2-Chloro-5-[5-methanesulfonyl-1-(3-morpholin-4-yl-propyl)-4,5,6,7-tetrahydro-1H-pyrazolo[4,3-c]pyridin-3-yl]-phenylethynyl}-benzyl)-acetamide]	–
6.46	CS(=O)(=O)N1CCc2c(c(-c3ccc(Cl)c(C#Cc4ccc(CNC(=O)c5ccccc5)cc4)c3)nn2CCCN2CCOCC2)C1 [Example 73, N-(4-{2-Chloro-5-[5-methanesulfonyl-1-(3-morpholin-4-yl-propyl)-4,5,6,7-tetrahydro-1H-pyrazolo[4,3-c]pyridin-3-yl]-phenylethynyl}-benzyl)-benzamide]	–
6.37	CS(=O)(=O)N1CCc2c(c(-c3ccc(Cl)c(C#Cc4ccc(CNCc5ccccc5)cc4)c3)nn2CCCN2CCOCC2)C1 [Example 74, Benzyl-(4-{2-chloro-5-[5-methanesulfonyl-1-(3-morpholin-4-yl-propyl)-4,5,6,7-tetrahydro-1H-pyrazolo[4,3-c]pyridin-3-yl]-phenylethynyl}-benzyl)-amine]	–
6.46	Cc1ccc(CNCc2ccc(C#Cc3cc(-c4nn(CCCN5CCOCC5)c5c4CN(S(C)(=O)=O)CC5)ccc3Cl)cc2)cc1 [Example 75, (4-{2-Chloro-5-[5-methanesulfonyl-1-(3-morpholin-4-yl-propyl)-4,5,6,7-tetrahydro-1H-pyrazolo[4,3-c]pyridin-3-yl]-phenylethynyl]-benzyl)-(4-methyl-benzyl)-amine]	–

Source: patent US20080200454A1, “CARBON-LINKED TETRAHYDRO-PYRAZOLO-PYRIDINE MODULATORS OF CATHEPSIN S” (priority 2007, published 2008)
